Experimental data reported in patent publication US11986480B2, “Heterocyclic compound” (TOHOKU UNIVERSITY, priority 2017, dated 2024).
One block for each compound: values may come before it.

Legend:
[1] = biological target: T1, FKBP12 (Homo sapiens, UniProt P62942); assay: Test Example 3: HeLa cells, Western blot FKBP12/actin (Testing Method C); format: cell-based; conditions: FKBP12, 1 uM, 24 hours, 1 or less = degradation promoted
T1 construct: endogenous in cells; host or cells: HeLa
Procedure: (§1) Test Example 3: Evaluation Using HeLa Cell (Testing Method C)
(§2) HeLa cells were inoculated to Dulbecco's Modified Eagle Medium (DMEM) and cultured for 24 hours. A test compound (specifically, compounds of Examples 47 to 52, 59 and 60) was added thereto at the final concentration shown in Table 2, followed by incubation for 24 hours under conditions of 37° C./5% CO2. The cells were washed with PBS three times and treated with a cell lysis solution containing a proteolytic enzyme inhibitor to obtain a cell extract. The cell extract was subjected to SDS-PAGE. After the electrophoresis, Brd4, FKBP12 or MetAP2 and actin were detected by Western blot. The ratio of the Brd4, FKBP12 or MetAP2/actin value of the drug-treated cells to the Brd4, FKBP12 or MetAP2/actin value of a control group in drug-untreated cells was regarded as an activity value. A value of 1 or less represents that degradation of Brd4, FKBP12 or MetAP2 was promoted.

[2] = biological target: Brd4 (Homo sapiens, UniProt O60885); assay: Test Example 4: A549 cells, Western blot Brd4/actin (Testing Method D); format: cell-based; parameters: endogenous in cells; conditions: BRD4, 1 uM, 24 hours, 1 or less = degradation promoted
Procedure: Test Example 4: Evaluation Using A549 Cell (Testing Method D)
as §2, with “A549” for “HeLa”, “57” for “47 to 52, 59”, “58)” for “60)”, “Brd4” for “Brd4, FKBP12 or MetAP2”, “Brd4/actin” for “Brd4, FKBP12 or MetAP2/actin”

[3] = biological target: T2, MetAP2 (Homo sapiens, UniProt P50579); assay: Test Example 3: HeLa cells, Western blot MetAP2/actin (Testing Method C); format: cell-based; conditions: MetAP2, 0.1 uM, 24 hours, 1 or less = degradation promoted
T2 construct: endogenous in cells; host or cells: HeLa
T2 sequence (P50579 whole entry): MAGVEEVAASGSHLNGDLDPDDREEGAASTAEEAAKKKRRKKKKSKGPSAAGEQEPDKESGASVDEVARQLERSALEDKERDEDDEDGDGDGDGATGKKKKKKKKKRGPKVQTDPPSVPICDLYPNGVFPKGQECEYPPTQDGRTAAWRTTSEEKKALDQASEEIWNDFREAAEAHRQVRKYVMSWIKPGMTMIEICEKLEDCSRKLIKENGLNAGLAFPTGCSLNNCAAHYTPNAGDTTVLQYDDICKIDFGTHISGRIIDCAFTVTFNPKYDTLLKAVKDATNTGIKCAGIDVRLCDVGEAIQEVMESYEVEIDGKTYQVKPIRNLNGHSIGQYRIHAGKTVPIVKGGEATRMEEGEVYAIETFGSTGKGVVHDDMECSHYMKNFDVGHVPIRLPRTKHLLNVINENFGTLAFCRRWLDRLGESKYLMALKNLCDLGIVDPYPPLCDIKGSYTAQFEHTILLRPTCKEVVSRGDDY
Procedure: as §1, §2

[4] = test system: EmGFP-HaloTag; assay: Test Example 1: HeLa cells stably expressing EmGFP-HaloTag, Western blot GFP/actin (Testing Method A); format: cell-based; conditions: 10 uM, 24 hours, 1 or less = degradation promoted
Procedure: Test Example 1: Evaluation Method Using Cell Stably Expressing EmGFP-HaloTag (Testing Method A)
HeLa cells stably expressing EmGFP-HaloTag were inoculated to Dulbecco's Modified Eagle Medium (DMEM) and cultured for 24 hours. Then, a test compound (specifically, compounds of Examples 1 to 7, 9 to 11, 13 to 15, 17 to 20, 24 to 27, 29, 32 to 33, 36 to 42, 44 to 46 and 56) was added thereto at the final concentration shown in Table 2, followed by incubation for 24 hours under conditions of 37° C./5% CO2. The cells were washed with PBS three times and treated with a cell lysis solution containing a proteolytic enzyme inhibitor to obtain a cell extract. The cell extract was subjected to SDS-PAGE. After the electrophoresis, GFP and actin were detected by Western blot. The ratio of the GFP/actin value of the drug-treated cells to the GFP/actin value of a control group in drug-untreated cells was regarded as an activity value. A value of 1 or less represents that degradation of EmGFP-HaloTag was promoted.

[5] = test system: EmGFP-HaloTag; assay: Test Example 5: Atg5-/- MEF cells overexpressing EmGFP-HaloTag, Western blot GFP/actin; format: cell-based, mouse; conditions: Atg5 KO MEF, 10 μM
Procedure: (§3) Test Example 5: Evaluation Using Atg5KO MEF
(§4) Atg5^−/− mouse embryonic fibroblast (MEF) cells or Atg5^+/+ MEF cells were inoculated to Dulbecco's Modified Eagle Medium (DMEM) and cultured for 24 hours. Cells overexpressing EmGFP-HaloTag were obtained by transfection with a plasmid pCMV-EmGFP-HaloTag (SEQ ID NO: 1) encoding EmGFP-HaloTag. On the next day, the compound of Example 56 was added thereto at a final concentration of 10 μM, followed by incubation for 24 hours under conditions of 37° C./5% CO2. The cells were washed with PBS three times and treated with a cell lysis solution containing a proteolytic enzyme inhibitor to obtain a cell extract. The cell extract was subjected to SDS-PAGE. After the electrophoresis, GFP and actin were detected by Western blot. The ratio of the GFP/actin value of the drug-treated cells to the GFP/actin value of a control group in drug-untreated cells was regarded as an activity value. A value of 1 or less represents that degradation of EmGFP-HaloTag was promoted.

[6] = test system: EmGFP-HaloTag; assay: Test Example 5: Atg5+/+ MEF cells overexpressing EmGFP-HaloTag, Western blot GFP/actin; format: cell-based, mouse; conditions: Atg5 WT MEF, 10 μM
Procedure: as §3, §4

T1 sequence (P62942 whole entry): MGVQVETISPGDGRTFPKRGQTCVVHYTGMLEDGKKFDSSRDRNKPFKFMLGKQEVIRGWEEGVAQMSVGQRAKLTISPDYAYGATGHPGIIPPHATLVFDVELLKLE

Activity value (FKBP12/actin of drug-treated cells relative to drug-untreated control) [1]: 0.5
Structure (SMILES): CCC(C)(C)C(=O)C(=O)N1CCCCC1C(=O)O[C@H](CCc1ccc(OC)c(OC)c1)c1cccc(NC(=O)CCC(=O)NCCCOCCOCCOCCCNC(=O)[C@H](CSc2nc3c(=O)[nH]c(N)nc3n2Cc2ccc(F)cc2)NC(C)=O)c1 (stereo partly drawn) [Example 59, (1R)-1-(3-((18-((N-Acetyl-S-(2-amino-9-(4-fluorobenzyl)-6-oxo-6,9-dihydro-1H-purin-8-yl)-L-cysteinyl)amino)-4-oxo-9,12,15-trioxa-5-azaoctadecan-1-oyl)amino)phenyl)-3-(3,4-dimethoxyphenyl)propyl 1-(3,3-dimethyl-2-oxopentanoyl)piperidine-2-carboxylate]

Activity value (Brd4/actin of drug-treated cells relative to drug-untreated control) [2]: 0.9
Structure (SMILES): CC(=O)N[C@@H](CSc1nc2c(=O)[nH]c(N)nc2n1Cc1ccc(F)cc1)C(=O)NCCCOCCOCCOCCCNC(=O)C[C@@H]1N=C(c2ccc(Cl)cc2)c2c(sc(C)c2C)-n2c(C)nnc21 [Example 57, N^2-Acetyl-S-(2-amino-9-(4-fluorobenzyl)-6-oxo-6,9-dihydro-1H-purin-8-yl)-N-(1-((6S)-4-(4-chlorophenyl)-2,3,9-trimethyl-6H-thieno[3,2-f][1,2,4]triazolo[4,3-a][1,4]diazepin-6-yl)-2-oxo-7,10,13-trioxa-3-azahexadecan-16-yl)-L-cysteinamide]

Activity value (MetAP2/actin of drug-treated cells relative to drug-untreated control) [3]: 0.7
Structure (SMILES): CO[C@@H]1[C@H](OC(=O)NCCCOCCOCCOCCCNC(=O)[C@H](CSc2nc3c(=O)[nH]c(N)nc3n2Cc2ccc(F)cc2)NC(C)=O)CC[C@]2(CO2)[C@H]1[C@@]1(C)O[C@@H]1CC=C(C)C [Example 60, (3R,5S,6R)-5-Methoxy-4-((2R,3R)-2-methyl-3-(3-methylbut-2-en-1-yl)oxiran-2-yl)-1-oxaspiro[2.5]oct-6-yl (3-(2-(2-(3-((N-acetyl-S-(2-amino-9-(4-fluorobenzyl)-6-oxo-6,9-dihydro-1H-purin-8-yl)-L-cysteinyl)amino)propoxy)ethoxy)ethoxy)propyl)carbamate]

Structure (SMILES): CC(=O)N[C@@H](CSc1nc2c(=O)[nH]c(N)nc2n1Cc1ccc(F)cc1)C(=O)NCCOCCOCCOCCOCCOCCCCCCCl [Example 56, N^2-Acetyl-S-(2-amino-9-(4-fluorobenzyl)-6-oxo-6,9-dihydro-1H-purin-8-yl)-N-(21-chloro-3,6,9,12,15-pentaoxahenicos-1-yl)-L-cysteinamide]
Activity value (GFP/actin of drug-treated cells relative to drug-untreated control) [4]: 0.55
Activity value (GFP/actin of drug-treated cells relative to drug-untreated control) ([5]; 0h): 1.0
Activity value (GFP/actin of drug-treated cells relative to drug-untreated control) ([5]; 24 h): 1.1
Activity value (GFP/actin of drug-treated cells relative to drug-untreated control) ([6]; 0h): 1.0
Activity value (GFP/actin of drug-treated cells relative to drug-untreated control) ([6]; 24 h): 0.3

Activity value (Brd4/actin of drug-treated cells relative to drug-untreated control) [2]: 0.8
Structure (SMILES): Cc1sc2c(c1C)C(c1ccc(Cl)cc1)=N[C@@H](CC(=O)NCCCOCCOCCOCCCNc1nc3c(=O)[nH]c(N)nc3n1Cc1ccc(F)cc1)c1nnc(C)n1-2 [Example 58, N-(3-(2-(2-(3-((2-Amino-9-(4-fluorobenzyl)-6-oxo-6,9-dihydro-1H-purin-8-yl)amino)propoxy)ethoxy)ethoxy)propyl)-2-((6S)-4-(4-chlorophenyl)-2,3,9-trimethyl-6H-thieno[3,2-f][1,2,4]triazolo[4,3-a][1,4]diazepin-6-yl)acetamide]
